Columns and labels:
[1] = target: Tyrosine-protein kinase Fyn (Homo sapiens) (UniProt P06241); experiment: Residual activity of FYN at 0.1 uM by microplate scintillation counting
[2] = system: Mast/stem cell growth factor receptor Kit (Homo sapiens), P10721 [T670I]; experiment: Residual activity of KIT T670I mutant at 1 uM by microplate scintillation counting
[3] = target: T1, Serine/threonine-protein kinase Sgk1 (Homo sapiens) (UniProt O00141); experiment: Residual activity of SGK1 at 1 uM by microplate scintillation counting
T1 sequence (whole entry): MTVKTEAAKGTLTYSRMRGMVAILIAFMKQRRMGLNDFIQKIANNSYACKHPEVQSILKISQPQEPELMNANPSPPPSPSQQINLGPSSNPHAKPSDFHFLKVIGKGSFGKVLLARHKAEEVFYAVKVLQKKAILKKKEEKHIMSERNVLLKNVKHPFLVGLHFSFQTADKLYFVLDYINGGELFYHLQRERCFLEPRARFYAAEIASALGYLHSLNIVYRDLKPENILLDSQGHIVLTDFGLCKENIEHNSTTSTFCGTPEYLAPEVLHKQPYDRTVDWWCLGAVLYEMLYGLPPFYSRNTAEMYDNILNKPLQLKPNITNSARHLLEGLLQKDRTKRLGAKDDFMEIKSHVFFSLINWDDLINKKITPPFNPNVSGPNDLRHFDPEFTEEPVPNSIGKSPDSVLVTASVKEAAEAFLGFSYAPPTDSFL

[4] = target: T2, Serine/threonine-protein kinase BRSK1 (Homo sapiens) (UniProt Q8TDC3); experiment: Residual activity of BRSK1 at 1 uM by microplate scintillation counting
T2 sequence (whole entry): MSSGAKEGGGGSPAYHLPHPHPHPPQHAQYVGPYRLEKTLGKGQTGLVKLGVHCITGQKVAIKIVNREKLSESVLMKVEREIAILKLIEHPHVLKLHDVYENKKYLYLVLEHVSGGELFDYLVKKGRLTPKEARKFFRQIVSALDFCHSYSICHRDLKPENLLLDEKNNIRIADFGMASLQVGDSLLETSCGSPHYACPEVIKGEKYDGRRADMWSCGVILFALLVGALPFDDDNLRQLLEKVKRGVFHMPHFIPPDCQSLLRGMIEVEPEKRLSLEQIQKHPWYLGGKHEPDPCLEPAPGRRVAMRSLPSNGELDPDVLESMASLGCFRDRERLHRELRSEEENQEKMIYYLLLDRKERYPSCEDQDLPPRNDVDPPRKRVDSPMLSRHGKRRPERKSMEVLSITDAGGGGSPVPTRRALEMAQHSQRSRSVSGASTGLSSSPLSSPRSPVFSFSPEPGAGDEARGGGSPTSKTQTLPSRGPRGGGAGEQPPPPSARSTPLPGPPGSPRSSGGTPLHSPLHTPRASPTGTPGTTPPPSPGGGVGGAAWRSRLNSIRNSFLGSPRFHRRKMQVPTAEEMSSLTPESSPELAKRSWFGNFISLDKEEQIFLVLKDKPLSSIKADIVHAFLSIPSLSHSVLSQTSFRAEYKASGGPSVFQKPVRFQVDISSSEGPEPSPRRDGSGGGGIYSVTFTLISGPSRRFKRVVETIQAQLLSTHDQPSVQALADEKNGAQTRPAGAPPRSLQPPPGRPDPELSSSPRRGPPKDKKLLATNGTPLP

[5] = target: T3, Calcium/calmodulin-dependent protein kinase type IV (Homo sapiens) (UniProt Q16566); experiment: Residual activity of CAMK4 at 0.1 uM by microplate scintillation counting
T3 sequence (whole entry): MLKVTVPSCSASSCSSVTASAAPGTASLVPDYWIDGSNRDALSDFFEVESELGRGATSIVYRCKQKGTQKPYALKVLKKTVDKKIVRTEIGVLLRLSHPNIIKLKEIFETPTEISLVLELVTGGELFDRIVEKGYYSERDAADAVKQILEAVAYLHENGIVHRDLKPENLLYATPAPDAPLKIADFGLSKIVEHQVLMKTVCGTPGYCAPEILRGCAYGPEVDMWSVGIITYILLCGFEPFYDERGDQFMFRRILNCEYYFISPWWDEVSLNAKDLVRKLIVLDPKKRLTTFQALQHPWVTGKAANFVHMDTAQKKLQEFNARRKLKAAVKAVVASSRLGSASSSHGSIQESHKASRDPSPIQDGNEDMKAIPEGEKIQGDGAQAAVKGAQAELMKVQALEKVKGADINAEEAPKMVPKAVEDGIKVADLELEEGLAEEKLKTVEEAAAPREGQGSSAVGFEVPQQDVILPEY

[6] = target: T4, Serine/threonine-protein kinase D1 (Homo sapiens) (UniProt Q15139); experiment: Residual activity of PKCmu at 0.1 uM by microplate scintillation counting
T4 sequence (whole entry): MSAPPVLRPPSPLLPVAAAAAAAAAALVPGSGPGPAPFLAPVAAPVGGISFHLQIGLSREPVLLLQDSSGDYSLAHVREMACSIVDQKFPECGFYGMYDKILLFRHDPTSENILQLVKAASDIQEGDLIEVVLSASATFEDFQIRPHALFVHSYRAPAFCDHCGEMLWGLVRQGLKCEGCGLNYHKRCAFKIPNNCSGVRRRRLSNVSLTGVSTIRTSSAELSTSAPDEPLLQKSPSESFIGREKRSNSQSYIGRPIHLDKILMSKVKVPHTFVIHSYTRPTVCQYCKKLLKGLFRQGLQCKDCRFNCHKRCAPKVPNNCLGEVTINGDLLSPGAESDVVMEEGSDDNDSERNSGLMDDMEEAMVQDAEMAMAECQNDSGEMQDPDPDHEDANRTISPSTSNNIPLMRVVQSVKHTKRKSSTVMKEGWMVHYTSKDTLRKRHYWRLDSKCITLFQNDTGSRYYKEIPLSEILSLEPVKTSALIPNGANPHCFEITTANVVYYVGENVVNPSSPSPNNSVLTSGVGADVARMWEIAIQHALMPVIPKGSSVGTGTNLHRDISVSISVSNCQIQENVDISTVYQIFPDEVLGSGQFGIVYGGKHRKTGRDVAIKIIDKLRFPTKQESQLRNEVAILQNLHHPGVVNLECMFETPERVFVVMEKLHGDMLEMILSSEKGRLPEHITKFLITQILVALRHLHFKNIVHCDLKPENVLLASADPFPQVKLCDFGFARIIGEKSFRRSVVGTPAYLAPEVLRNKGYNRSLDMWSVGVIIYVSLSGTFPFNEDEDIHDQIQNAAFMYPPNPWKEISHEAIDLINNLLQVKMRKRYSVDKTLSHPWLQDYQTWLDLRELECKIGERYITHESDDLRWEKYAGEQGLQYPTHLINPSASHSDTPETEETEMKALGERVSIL

Sequence of Mast/stem cell growth factor receptor Kit (Homo sapiens), P10721 [T670I] (P10721 whole entry T670I): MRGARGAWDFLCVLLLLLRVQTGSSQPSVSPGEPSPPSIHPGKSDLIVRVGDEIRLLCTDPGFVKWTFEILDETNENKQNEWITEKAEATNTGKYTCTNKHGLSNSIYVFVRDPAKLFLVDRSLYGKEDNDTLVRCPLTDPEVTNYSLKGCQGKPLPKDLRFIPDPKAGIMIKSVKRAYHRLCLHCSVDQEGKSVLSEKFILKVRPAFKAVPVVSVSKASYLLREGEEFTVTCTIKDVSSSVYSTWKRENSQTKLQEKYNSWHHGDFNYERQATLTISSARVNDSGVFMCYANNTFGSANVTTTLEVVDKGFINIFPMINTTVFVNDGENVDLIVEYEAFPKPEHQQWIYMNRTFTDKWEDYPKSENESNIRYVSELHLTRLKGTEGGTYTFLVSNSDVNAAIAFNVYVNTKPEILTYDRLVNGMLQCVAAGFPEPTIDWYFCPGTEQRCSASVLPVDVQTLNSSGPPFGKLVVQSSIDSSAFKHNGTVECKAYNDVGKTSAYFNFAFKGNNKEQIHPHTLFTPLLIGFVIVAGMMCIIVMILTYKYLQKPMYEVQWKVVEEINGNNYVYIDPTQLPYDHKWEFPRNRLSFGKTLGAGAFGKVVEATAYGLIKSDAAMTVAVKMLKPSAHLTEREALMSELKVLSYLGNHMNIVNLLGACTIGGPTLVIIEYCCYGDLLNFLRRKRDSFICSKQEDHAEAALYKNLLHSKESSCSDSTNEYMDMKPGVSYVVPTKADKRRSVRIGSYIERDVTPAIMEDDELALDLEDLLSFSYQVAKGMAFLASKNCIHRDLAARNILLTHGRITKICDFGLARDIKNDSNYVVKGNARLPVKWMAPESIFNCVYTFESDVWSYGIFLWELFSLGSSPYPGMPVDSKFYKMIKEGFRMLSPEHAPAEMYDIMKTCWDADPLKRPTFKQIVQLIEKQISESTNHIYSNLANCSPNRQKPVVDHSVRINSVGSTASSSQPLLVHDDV
Sequence of Tyrosine-protein kinase Fyn (Homo sapiens) (P06241 2-537 limits assumed): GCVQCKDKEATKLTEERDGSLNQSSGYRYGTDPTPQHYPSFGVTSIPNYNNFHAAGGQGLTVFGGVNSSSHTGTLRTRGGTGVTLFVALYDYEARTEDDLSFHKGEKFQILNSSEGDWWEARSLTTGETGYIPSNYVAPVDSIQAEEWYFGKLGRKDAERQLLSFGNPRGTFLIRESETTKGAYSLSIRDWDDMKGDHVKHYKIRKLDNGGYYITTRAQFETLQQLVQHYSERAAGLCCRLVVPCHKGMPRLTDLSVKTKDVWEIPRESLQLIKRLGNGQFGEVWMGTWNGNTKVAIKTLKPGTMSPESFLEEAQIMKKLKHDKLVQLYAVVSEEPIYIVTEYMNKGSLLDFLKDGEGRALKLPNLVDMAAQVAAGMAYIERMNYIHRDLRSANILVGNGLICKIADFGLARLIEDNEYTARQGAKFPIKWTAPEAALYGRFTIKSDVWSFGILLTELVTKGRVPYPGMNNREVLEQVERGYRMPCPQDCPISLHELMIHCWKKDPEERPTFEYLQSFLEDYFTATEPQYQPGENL

COc1cc2c(Oc3ccc(-c4nc5ccccc5s4)cc3F)ncnc2cc1OCCCN1CCN(C)CC1 was tested, and the residual activity [1] was 98%, the residual activity [2] was 65% and the residual activity [3] was 96%. It also gave a residual activity [4] of 91%, a residual activity [5] of 97% and a residual activity [6] of 81%.

COc1cc2c(Oc3ccc(-c4nc5ccccc5s4)cc3)ncnc2cc1OCCCN1CCCC1 showed a residual activity [1] of 105%, a residual activity [2] of 73% and a residual activity [3] of 99%. The residual activity [4] was 91%, the residual activity [5] was 102% and the residual activity [6] was 102%.

COc1cc2c(Oc3ccc(-c4nc5ccccc5s4)cc3)ncnc2cc1OCCCN1CCN(C)CC1 showed a residual activity [1] of 101%, a residual activity [2] of 73% and a residual activity [3] of 86%. For the same compound, the residual activity [4] was 91%, the residual activity [5] was 96% and the residual activity [6] was 91%.

— ChEMBL document CHEMBL1152560, “Substituted 2-arylbenzothiazoles as kinase inhibitors: hit-to-lead optimization” (Bioorg Med Chem, 2009)
